Measured values taken from patent publication US20250136722A1, “CYTOTOXICITY TARGETING CHIMERAS” (GLAXOSMITHKLINE INTELLECTUAL PROPERTY DEVELOPMENT LIMITED, priority 2021, published 2025).
Several values for one entry are separate records, joined by “and”; a condition that tells them apart may be missing. Equal values may be shown once.

Experiments:
[1] = molecular target: Anti-cotinine antibody (SEQ ID NO: 11 / SEQ ID NO: 12, rabbit variable region with human IgG1 Fc domain); assay: Binding of anti-cotinine antibody to ARM compounds by SPR, Biacore T200, 37° C. (Example 202); conditions: pH 7.4, rabbit variable region/human IgG1 Fc antibody captured on protein A
Procedure, shortened: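 Run at 37° C. in 10 mM HEPES pH 7.4, 150 mM NaCl, 0.005% P20, 1% DMSO. Compound titrated from 200 nM (five 3-fold steps) over protein A-captured antibody, with 200/2000 s association/dissociation. 1:1 kinetic fit gave kon, koff, Kd and residence time (1/koff); pKd averaged where runs repeated.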

[2] = molecular target: Anti-cotinine antibody SEQ ID NO: 9 / SEQ ID NO: 10 (humanized version); assay: Binding of humanized anti-cotinine antibody to ARM compounds by SPR, Biacore 8k, 25° C. (Example 202); conditions: top concentration 2.50E−08 M
Source text: Anti-cotinine antibodies having a heavy chain sequence of SEQ ID NO: 9 and a light chain sequence of SEQ ID NO: 10 (humanized version) or a heavy chain sequence of SEQ ID NO: 11 and a light chain sequence of SEQ ID NO: 12 (rabbit version) were captured via the Fc domain to a protein A or A/G surface on flow cell 2 of a CM5 sensor chip using the Biacore 8k.
After antibody capture, a 1500 second wait step was included to reduce drift in the binding step. ARM compounds of Formula (I) were then flowed over the captured antibodies at varying top concentrations ranging from 250 nM to 4 μM (see Table 6 below for top concentration values). The top concentration was diluted 4-fold over 5 dilutions (with a 0 nM compound cycle included to blank subtract the data). Association and dissociation times of the ARMs compounds of Formula (I) varied between experiments as follows and indicated in Table 6 below: reference 1—association for 600 seconds and dissociation for 1200 seconds at 20 μl/min; reference 2—association for 240 seconds and dissociation for 300 seconds at 30 μl/min; reference 3—association for 360 seconds and dissociation for 600 seconds at 30 μl/min. Anti-cotinine antibody bound to the protein A or A/G surface was regenerated using 50 mM NaOH. Experiments were run at 25° C. at pH 7.4 using HBS-EP+ buffer using Biacore 8K control software and evaluated using Biacore Insight Evaluation software. Curves were fit with the 1:1 kinetic fit inherent to the software, utilising a local Rmax and local drift setting.
Anti-cotinine antibody was tested for binding to ARMs compounds of Formula (I) of the invention in the above assay in or more experimental runs and the results are shown in Table 6 below. Affinity is reported as a pKd value. The pKd value is the negative log of the Kd value, wherein the Kd value is the dissociation constant measured in molar (M) as noted above. For compounds tested in more than one experimental run, the pKd value is reported as an average.

[3] = molecular target: human alpha1 nicotinic acetylcholine (nACh) receptor (Homo sapiens, UniProt P02708+Q07001); assay: Nicotinic acetylcholine receptor antagonism assay, IONFlux automated patch clamp (Example 203); format: cell-based; conditions: for IC50: nAChR antagonism, ACh stimulated, patch clamp; for Emax at 10 µM: maximum percentage antagonism at maximum concentration tested 10 μM
Chain of human alpha1 nicotinic acetylcholine (nACh) receptor (P02708 21-457): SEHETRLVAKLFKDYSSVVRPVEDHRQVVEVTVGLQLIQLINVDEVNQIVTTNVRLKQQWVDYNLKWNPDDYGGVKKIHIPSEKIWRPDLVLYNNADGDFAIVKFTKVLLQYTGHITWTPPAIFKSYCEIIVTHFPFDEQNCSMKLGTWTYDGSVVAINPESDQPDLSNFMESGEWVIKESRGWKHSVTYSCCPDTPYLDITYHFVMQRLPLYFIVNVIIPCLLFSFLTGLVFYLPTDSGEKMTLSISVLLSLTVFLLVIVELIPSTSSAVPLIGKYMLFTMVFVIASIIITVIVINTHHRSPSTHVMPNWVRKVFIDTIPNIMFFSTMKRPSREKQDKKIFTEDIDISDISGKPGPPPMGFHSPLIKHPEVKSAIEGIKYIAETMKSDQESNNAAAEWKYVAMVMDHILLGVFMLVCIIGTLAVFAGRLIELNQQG
Chain of human alpha1 nicotinic acetylcholine (nACh) receptor (P11230 24-501 partner): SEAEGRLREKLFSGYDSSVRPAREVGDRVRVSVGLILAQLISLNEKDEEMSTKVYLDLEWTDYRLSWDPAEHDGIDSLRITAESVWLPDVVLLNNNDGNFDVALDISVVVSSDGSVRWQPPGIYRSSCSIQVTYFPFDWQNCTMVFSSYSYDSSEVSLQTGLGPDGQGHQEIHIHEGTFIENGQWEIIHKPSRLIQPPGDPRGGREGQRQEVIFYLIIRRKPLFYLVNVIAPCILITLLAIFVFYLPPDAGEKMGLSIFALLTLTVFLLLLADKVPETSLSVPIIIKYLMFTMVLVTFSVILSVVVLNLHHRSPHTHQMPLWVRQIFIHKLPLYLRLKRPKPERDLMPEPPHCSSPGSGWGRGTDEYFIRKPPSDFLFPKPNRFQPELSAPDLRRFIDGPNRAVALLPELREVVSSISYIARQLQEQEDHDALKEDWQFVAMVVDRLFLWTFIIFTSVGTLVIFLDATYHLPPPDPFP
Chain of human alpha1 nicotinic acetylcholine (nACh) receptor (Q07001 22-517): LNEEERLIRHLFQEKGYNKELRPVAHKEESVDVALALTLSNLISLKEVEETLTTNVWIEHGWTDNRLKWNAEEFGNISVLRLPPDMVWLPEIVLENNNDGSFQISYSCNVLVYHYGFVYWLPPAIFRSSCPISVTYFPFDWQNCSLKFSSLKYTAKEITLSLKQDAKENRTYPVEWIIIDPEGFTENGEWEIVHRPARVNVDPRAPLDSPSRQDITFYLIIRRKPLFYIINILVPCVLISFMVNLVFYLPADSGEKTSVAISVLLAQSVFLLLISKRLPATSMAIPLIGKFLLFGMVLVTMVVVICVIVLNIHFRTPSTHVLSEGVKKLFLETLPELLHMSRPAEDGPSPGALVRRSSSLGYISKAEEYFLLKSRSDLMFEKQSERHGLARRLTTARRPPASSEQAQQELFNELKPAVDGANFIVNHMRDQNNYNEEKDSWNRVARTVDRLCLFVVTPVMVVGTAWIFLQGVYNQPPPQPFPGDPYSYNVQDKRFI
Procedure, shortened: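 Human α1 nAChR-expressing cells were preincubated with compound (top 10 μM or 100 μM), then stimulated with 10 mM ACh; peak currents were recorded by IONFlux automated patch clamp. Percent inhibition versus ACh-alone control was vehicle- and rundown-corrected, then fitted to give IC50, with maximal antagonism at the top concentration; recordings with control current <500 pA were excluded.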

[4] = reference 3: association 360 s, dissociation 600 s at 30 μl/min

SMILES	pKd of Antibody for ARM Compound of Formula (I) [1]	kd ([2]; reference 1: association 600 s, dissociation 1200 s at 20 μl/min)	ka [2, 4]	kd [2, 4]	pKd [2, 4]	Emax at 100 µM ([3]; maximum percentage antagonism at maximum concentration tested 100 μM, read-out: Maximum Response (%))	IC50 [3]	Emax at 33.33 µM ([3]; maximum percentage antagonism at maximum concentration tested 33.33 μM, read-out: Maximum Response (%))	Emax at 10 µM ([3]; read-out: Maximum Response (%))
CC(C)N(C)[C@@H]1CC[C@H](N2CC[C@H](Nc3ncnc4ccc(C(F)(F)F)cc34)C2=O)[C@H](NC(=O)[C@H]2CC[C@H](NC(=O)CCCO[C@H]3CC[C@H](OCCNC(=O)[C@H]4CC(=O)N(C)[C@@H]4c4cccnc4)CC3)CC2)C1 [Example 1, (2S,3S)-N-(2-(((1R,4S)-4-(4-(((1R,4R)-4-(((1R,2S,5R)-5-(Isopropyl(methyl)amino)-2-((S)-2-oxo-3-((6-(trifluoromethyl)quinazolin-4-yl)amino)pyrrolidin-1-yl)cyclohexyl)carbamoyl)cyclohexyl)amino)-4-oxobutoxy)cyclohexyl)oxy)ethyl)-1-methyl-5-oxo-2-(pyridin-3-yl)pyrrolidine-3-carboxamide]	9.654	0.000456 s⁻¹ and 0.000649 s⁻¹	1.64e+06 M⁻¹ s⁻¹	0.000414 s⁻¹	9.6	25.6%	84.6 µM		
CN1C(=O)C[C@H](C(=O)NCCO[C@H]2CC[C@H](OCCCC(=O)N[C@H]3CC[C@H](C(=O)N[C@@H]4C[C@H](NC(C)(C)C)CC[C@@H]4N4CC[C@H](Nc5ncnc6ccc(C(F)(F)F)cc56)C4=O)CC3)CC2)[C@H]1c1cccnc1 [Example 10]	9.199		1.42e+06 M⁻¹ s⁻¹	0.000484 s⁻¹	9.47		> 33.3 µM	48%	
CN1C(=O)C[C@H](C(=O)NCCOCCOCCOCCOCCOCCC(=O)N[C@@H]2C[C@H](NC(C)(C)C)CC[C@@H]2N2CC[C@H](Nc3ncnc4ccc(C(F)(F)F)cc34)C2=O)[C@H]1c1cccnc1 [Example 37]	9.7475						> 10 µM		7.3%
CN1C(=O)C[C@H](C(=O)NCCOCCOCCOCCOCCOCCOCCC(=O)N[C@@H]2C[C@H](NC(C)(C)C)CC[C@@H]2N2CC[C@H](Nc3ncnc4ccc(C(F)(F)F)cc34)C2=O)[C@H]1c1cccnc1 [Example 38]	9.611						> 10 µM		-2.2%
